Results taken from patent US20240317748A1, “CARBONYL SUBSTITUTED DIAZASPIRO COMPOUNDS AND ITS USE” (BIONOVA PHARMACEUTICALS (SHANGHAI) LIMITED, priority 2021, published 2024).

Assays:
Menin-MLL1 = biological target: T1, Menin-MLL1 (Homo sapiens, UniProt O00255); assay: Menin-MLL1 inhibition assay (fluorescence polarization, Menin protein + FAM-MLL peptide); assay type: binding; conditions: Menin (2-610) isoform 2, FAM-labelled MLL peptide, mP readout; read-out: Biochemical assay Menin-MLL1 IC50
T1 construct: Menin (2-610) isform2; purchased ChemPartner 2020111101
T1 sequence (O00255 2-610): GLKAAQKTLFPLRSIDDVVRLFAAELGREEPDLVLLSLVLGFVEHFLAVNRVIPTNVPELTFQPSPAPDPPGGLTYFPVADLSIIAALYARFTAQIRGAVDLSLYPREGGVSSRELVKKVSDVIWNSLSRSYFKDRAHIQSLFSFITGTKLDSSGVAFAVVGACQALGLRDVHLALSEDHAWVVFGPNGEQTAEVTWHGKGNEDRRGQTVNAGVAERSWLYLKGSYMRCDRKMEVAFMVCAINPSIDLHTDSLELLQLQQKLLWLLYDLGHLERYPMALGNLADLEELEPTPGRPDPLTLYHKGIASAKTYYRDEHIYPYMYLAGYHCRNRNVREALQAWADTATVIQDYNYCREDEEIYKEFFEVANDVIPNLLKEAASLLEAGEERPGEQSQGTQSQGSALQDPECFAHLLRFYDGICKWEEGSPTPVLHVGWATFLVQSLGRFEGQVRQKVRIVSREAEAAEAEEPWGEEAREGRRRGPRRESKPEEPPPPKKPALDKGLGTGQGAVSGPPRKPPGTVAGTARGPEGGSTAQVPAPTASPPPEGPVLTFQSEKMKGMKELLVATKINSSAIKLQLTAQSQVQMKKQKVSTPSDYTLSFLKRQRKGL
Description: 1× assay bu9ffer (Tris 7.5 50 mM, NaCl 50 mM, DTT 1 mM, Tween-20 0.01%) was prepared and test compounds solution (10 mM in DMSO, Sigma, Cat. No. 34869) were transferred to assay plate (384-well plate, Perkin Elmer, Cat. No. 6007279) by Echo. The final fraction of DMSO is 1%. 20 nM of Menin protein (Menin (2-610) isform2, ChemPartner, Cat. No. 2020111101) in 1× assay buffer was added to prepare 2× enzyme solution. Then 10 nM of MLL-peptide (Ac-SRWRFPARPGTGRR-Ahx-Ahx-K(FAM)-NH2, GL Biochem (Shanghai)), Cat. No. 833831/202009220104) in 1× assay buffer was added to prepare 2× substrate solution. 10 μL of 2× enzyme solution was transferred to assay plate or 10 μL of 1× assay buffer for low control group. 10 μL of 2× substrate solution was added to each well to start reaction. mP data on Envision (Ex480/Em535(s), Em535(p)) was collected.
Compound potencies were determined by first calculating % inhibition at each compound concentration according to equation 1:
Inhibition %=(Max−Signal)/(Max−Min)*100 (Equation 1)
Y=Bottom+(Top-Bottom)/(1+(IC50/X)[…]), where Y is % inhibition and X is compound concentration (Equation 2)

[1] = Liver microsome stability study; assay type: in vitro ADME; conditions: human liver microsomes 0.5 mg/mL, 1 μM compound, NADPH, 37° C.; read-out: Human liver microsome T1/2
Description: Studies were carried out in liver microsomes (Corning, 0.5 mg/mL). Stock solutions were prepared at 10 mM in DMSO for the test compounds. Aliquots of the stock solutions were diluted to 0.5 mM with acetonitrile, and then further diluted upon the addition of liver microsomes/buffer to 1.5 μM. An aliquot of 30 μL of 1.5 μM solutions was mixed with 15 μL of 6 mM NADPH and the final concentration of NADPH was 2 mM, which had been pre-warmed to 37° C. Test compounds and Ketanserin final concentrations were 1 μM. The plates were kept in a 37° C. water bath for the duration of the experiment. At each time point (0, 5, 15, 30, 45 minutes), 135 μL of acetonitrile was added into corresponding wells. After the final time point was quenched by acetonitrile, the assay plates were shaken at the vibrator (IKA, MTS 2/4) for 10 min (600 rpm/min) and then centrifuged at 5,594 g for 15 min (Thermo Multifuge×3R). Aliquots of the supernatant were taken, diluted 1:1 into distilled water, and analyzed by LC-MS/MS. The peak area response ratio to internal standard (PARR) of the compounds at 5, 15, 30, 45 minutes was compared to the PARR at time 0 to determine the percent of test compound remaining at each time point. Half-lives were calculated using Excel software, fitting to a single-phase exponential decay equation.

MV-4-11 cells = assay: Cell proliferation assay (CellTiter-Glo), MV-4-11; assay type: cell-based, human; conditions: Homo sapiens, MV4-11, 96 h; MV-4-11 (MLL-AF4), 4 days incubation; read-out: Cell antiproliferation assay MV-4-11 IC50
Description: (§1) The antiproliferative activity of test compounds was assessed in human leukemia cell lines. The cell line MV4-11, MOLM13 and OCI-AML3, which expresses the MLL fusion protein MLL-AF4, MLL-AF9 and carry the NPM1c gene mutation, respectively, were tested. HL-60 was used as a control cell line containing two MLL wildtype alleles in order to exclude compounds that display general cytotoxic effect. MV4-11 cells were cultured in IMDM supplemented with 10% FBS, MOLM13 and OCI-AML3 cells were cultured in RPMI1640 supplemented with 20% FBS, and HL-60 cells were cultured in IMDM supplemented with 20% FBS. Corresponding cells (MV4-11, MOLM13, OCI-AML3 or HL-60 cell line) were seeded in 100 uL medium per well in 96-well plate (white wall with clear bottom, tissue culture treated, Corning, Cat. No. CLS3903; Lot.No. 30419025). Plates were placed in the CO2 incubator overnight. Compounds solution (2 mM starting, 4-fold serial dilution) were prepared and added to the wells containing 100 μL of the culture medium with HPD300 according to the plate map and centrifuge at 1000 rpm for 1 minutes (200-fold dilution totally). MV4-11, MOLM13, OCI-AML3 and HL-60 cells were incubated with the compounds for 4, 12, 5 and 4 days, respectively, under 5% CO2 at 37° C., respectively. 100 μL of CellTiter-Glo reagent (Promega, Cat. No. G7573, Lot. No. 0000416710) was added to the assay plate by Multidrop Combi instrument, contents were mixed for 10 minutes on an orbital shaker to induce cell lysis. After incubation at room temperature for 10 mins, clear bottom with white back seal was pasted and luminescence with Envision was read.

HL-60 cells = assay: Cell proliferation assay (CellTiter-Glo), HL-60 control line; assay type: cell-based, human; conditions: Homo sapiens, 96 h, 4 days incubation; for IC50: HL-60 control line (MLL wildtype), read-out: Cell antiproliferation assay HL-60 IC50; for inhibition at 10 µM: HL-60 control line, read-out: HL-60 (Pct of inhibition at 10 μM)
Description: as §1

OCI-AML3 cells = assay: Cell proliferation assay (CellTiter-Glo), OCI-AML3; assay type: cell-based, human; conditions: Homo sapiens, OCI-AML-3, 120 h; OCI-AML3 (NPM1c mutation), 5 days incubation; read-out: Cell antiproliferation assay OCI-AML3 IC50
Description: as §1

MOLM13 cells = assay: Cell proliferation assay (CellTiter-Glo), MOLM13; assay type: cell-based, human; conditions: Homo sapiens, MOLM-13, 288 h; MOLM13 (MLL-AF9), 12 days incubation; read-out: Cell antiproliferation assay MOLM13 IC50
Description: as §1

SMILES	IC50 (Menin-MLL1) [nM]	half-life at 1 μM [1] [min]	IC50 (MV-4-11 cells) [nM]	IC50 (HL-60 cells) [µM]	inhibition at 10 µM (HL-60 cells) [%]	IC50 (OCI-AML3 cells) [nM]	IC50 (MOLM13 cells) [nM]
CCN(C(=O)c1cc(F)ccc1Oc1cncnc1N1CC2(CCN(C(=O)[C@]3(C)CCCN3)CC2)C1)C(C)C [Example 22]	4.9	92	134	–	–	–	–
CCN(C(=O)c1cc(F)ccc1Oc1cncnc1N1CC2(CCN(C(=O)[C@H]3NC[C@@H]4C[C@@H]43)CC2)C1)C(C)C [Example 34]	4.1	–	18	> 10	-12.2	–	–
CCN(C(=O)c1cc(F)ccc1Oc1cncnc1N1CC2(CN(C(=O)[C@@H]3C[C@@H](F)CN3)C2)C1)C(C)C [Example 38]	3.3	60	69	–	–	–	–
CCN(C(=O)c1cc(F)ccc1Oc1cncnc1N1CC2(CCN(C(=O)[C@H]3NCC[C@@H]3C)CC2)C1)C(C)C [Example 41]	3.6	–	7.7	> 10	-22.2	31.4	23.7
CCN(C(=O)c1cc(F)ccc1Oc1cncnc1N1CC2(CCN(C(=O)[C@@H]3C[C@@H](C)CN3)CC2)C1)C(C)C [Example 47]	3.7	–	15.9	> 10	-10.6	–	–
CC(C)N(CCO)C(=O)c1cc(F)ccc1Oc1cncnc1N1CC2(CCN(C(=O)[C@@H]3C[C@@H](F)CN3)CC2)C1 [Example 49]	3.6	–	57.3	> 10	-8.4	–	–
CC(C)N(C(=O)c1cc(F)ccc1Oc1nncnc1N1CC2(CCN(C(=O)[C@@H]3C[C@@H](F)CN3)CC2)C1)C(C)C [Example 56]	3.7	–	16.8	> 10	-12.2	132	68.3
CC(C)n1ncc(Cl)c1-c1cc(F)ccc1Oc1cncnc1N1CC2(CCN(C(=O)[C@@H]3C[C@@H](F)CN3)CC2)C1 [Example 58]	3.5	–	27.1	> 10	-4.5	–	–
CC(C)N(C(=O)c1cc(F)ccc1Oc1nncnc1N1CC2(CCN(C(=O)[C@H]3NCC[C@@H]3C)CC2)C1)C(C)C [Example 64]	1.9	–	9.6	> 10	11.2	–	20.2
N#Cc1ccc(-c2cc(F)ccc2Oc2nncnc2N2CC3(CCN(C(=O)[C@@H]4C[C@@H](F)CN4)CC3)C2)c(C2CC2)c1 [Example 67]	2.8	–	20.5	> 10	23.8	–	61.1
CC[C@H]1CCN[C@@H]1C(=O)N1CCC2(CC1)CN(c1ncnnc1Oc1ccc(F)cc1C(=O)N(CC)C(C)C)C2 [Example 70]	4.6	–	9.5	> 10	1	52.7	49.5
N#Cc1ccc(-c2cc(F)ccc2Oc2nncnc2N2CC3(CCN(C(=O)[C@H]4NC[C@@H]5C[C@@H]54)CC3)C2)c(C2CC2)c1 [Example 78]	2.9	–	6.5	> 10	40	28.1	14.2
C[C@H]1CCN[C@@H]1C(=O)N1CCC2(CC1)CN(c1ncnnc1Oc1ccc(F)cc1-c1ccc(C#N)cc1C1CC1)C2 [Example 79]	9.9	–	5.9	> 10	33.8	25.9	15.6
O=C([C@H]1NC[C@@H]2C[C@@H]21)N1CCC2(CC1)CN(c1ncnnc1Oc1ccc(F)cc1-c1cncnc1C1CC1)C2 [Example 80]	4.3	–	39	> 10	0	–	–
CC1(C)[C@@H]2[C@@H](C(=O)N3CCC4(CC3)CN(c3ncnnc3Oc3ccc(F)cc3-c3cncnc3C3CC3)C4)NC[C@@H]21 [Example 81]	3.9	–	7.7	> 10	21.4	25.5	16.6
CCN(C(=O)c1cc(F)ccc1Oc1nncnc1N1CC2(CCN(C(=O)[C@H]3NCc4ccccc43)CC2)C1)C(C)C [Example 85]	5.5	–	76.7	> 10	-2.8	–	–
CC[C@@H]1[C@@H](C(=O)N2CCC3(CC2)CN(c2ncnnc2Oc2ccc(F)cc2C(=O)N(CC)C(C)C)C3)NC[C@@H]1F [Example 86]	3.6	–	76	> 10	10.8	282	199
CCN(C(=O)c1cc(F)ccc1Oc1nncnc1N1CC2(CCN(C(=O)[C@H]3NCC[C@@H]3CF)CC2)C1)C(C)C [Example 88]	3.2	–	24.2	> 10	11.4	102	68.6
N#Cc1ccc(-c2cc(F)ccc2Oc2nncnc2N2CC3(CCN(C(=O)[C@H]4NC[C@@H]5CCC[C@@H]54)CC3)C2)c(C2CC2)n1 [Example 90]	2.8	–	2.6	–	–	–	6.1
COc1ccc(-c2cc(F)ccc2Oc2nncnc2N2CC3(CCN(C(=O)[C@H]4NC[C@@H]5CCC[C@@H]54)CC3)C2)c(C2CC2)n1 [Example 107]	2.4	–	2.4	–	–	–	–
